For assay [1], the target named is T1, human ghrelin receptor type 1a (GHS-R1a) (Homo sapiens, UniProt Q92847).
T1 construct: expressed in transfected cells; host or cells: HEK-293 cells (membranes)
Kind of assay: Receptor binding: displacement of radiolabelled ghrelin on membranes of HEK-293 cells. As to conditions: read-out: binding affinities (Ki).

Assay [2] has as its target T2, Ghrelin/GHRP/GHS Receptor (Rattus norvegicus, UniProt O08725). Kind of assay: In vivo assay of GH release in rat, i.v. peptide alone or plus stimulator, serum GH by RIA. The protocol:
(§1) The peptides were synthesized by the solid phase method and purified by HPLC. GH was determined by Radioimmunoassay (RIA).
For the in vivo assay of GH Release in rat, immature female Sprague Dawley rats were obtained from Charles River from Wilmington, Mass. After arrival they were housed at 25° C. with a 14:10 h light:dark cycle. Water and Purina rat chow were available at libitum. Pups were weaned at 21 days of age.
Immature twenty six day old female Sprague Dawley rats, 3-6 rats per treatment dose, were pretreated with pentobarbital 20 minutes before iv injection of vehicle/peptide or peptide plus stimulator. Injection was made as a 0.1 ml solution. For the non-pentobarbital treated rat assay, peptides were administered iv into the tail vein of conscious rats. All animals were sacrificed by guillotine after iv peptide or vehicle. Trunk blood was collected at +10-15 minutes […], allowed to clot, centrifuged and serum stored until assayed for GH levels by RIA. The GH RIA reagents were distributed by the NIH. Control data was collected from rats treated with only the corresponding vehicle in the absence of peptide or stimulator. Control stimulated data was collected from rats treated with stimulator alone in the absence of any peptide.

Assay [3] deals with T2, Ghrelin/GHRP/GHS Receptor. The assay can be described thus: In vitro cell culture method: GH release from cell culture of pituitary cells, peptide alone or plus stimulator. Further details: from cell culture of pituitary cells; endogenous in cells; host or cells: dispersed primary rat anterior pituitary cells, 4 days in culture. Type of assay: cell-based. On the procedure:
as §1
In vitro GH Release-Female rats of the CD-1 strain were housed in a constant temperature room at 24° C. with 14 h light and 10 h darkness. The rats were fed Purina Rat chow and water at libitum. All studies were started between 0800-1000 hours. Pituitaries of mature female Sprague Dawley rats were rapidly removed after decapitation, neurointermediate lobe discarded and then placed in a pH 7.4 buffer. The pituitaries were cut into ˜3-mm pieces and then transferred to a flask containing HEPS buffer with trypsin and incubated at 37° C. Cells were triturated several times during this period. After dispersion, the cells were collected by centrifugation, wash with DMEM and placed into culture well. Cell cultures were maintained for 4 days at 37° with 8% CO2 added to the incubator atmosphere. After 4 days in culture, cells were washed with lactated Ringer's solution adjusted to pH 7.2-7.4 and then vehicle, peptide alone or peptide plus stimulator was added to media. Incubation time was 60-120 minutes after which media was removed from each well for GH determination. The GH RIA reagents were distributed by the NIH. Control data was collected from cell cultures treated with only the corresponding vehicle in the absence of peptide or stimulator. Control stimulated data was collected from cell cultures treated with stimulator alone in the absence of any peptide.

Several values for one entry are separate records, joined by “and”; a condition that tells them apart may be missing. Identical values can stand only once. Where a SMILES comes first, the peptide text is derived from it. Where no end group is shown, it is not given here. [ ]: non-standard residue; d: D form. dTrp(2-Me) = Cc1[nH]c2ccccc2c1C[C@@H](N)C(=O)O; d2Nal = N[C@H](Cc1ccc2ccccc2c1)C(=O)O

We go through 2 compounds from patent publication US8536120B2 (The Administrators of The Tulane Educational Fund, priority 2006, dated 2013).

T2 sequence (O08725 whole entry): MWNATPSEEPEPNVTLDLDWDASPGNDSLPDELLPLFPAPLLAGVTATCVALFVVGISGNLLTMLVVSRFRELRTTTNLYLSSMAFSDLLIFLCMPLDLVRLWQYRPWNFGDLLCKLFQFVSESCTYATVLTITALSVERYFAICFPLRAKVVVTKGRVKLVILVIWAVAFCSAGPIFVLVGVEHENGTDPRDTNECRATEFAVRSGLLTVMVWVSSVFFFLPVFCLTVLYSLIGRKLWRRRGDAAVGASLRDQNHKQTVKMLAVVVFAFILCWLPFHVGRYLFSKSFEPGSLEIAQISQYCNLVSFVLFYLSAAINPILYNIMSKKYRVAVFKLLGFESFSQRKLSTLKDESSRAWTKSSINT
T1 sequence (Q92847 whole entry): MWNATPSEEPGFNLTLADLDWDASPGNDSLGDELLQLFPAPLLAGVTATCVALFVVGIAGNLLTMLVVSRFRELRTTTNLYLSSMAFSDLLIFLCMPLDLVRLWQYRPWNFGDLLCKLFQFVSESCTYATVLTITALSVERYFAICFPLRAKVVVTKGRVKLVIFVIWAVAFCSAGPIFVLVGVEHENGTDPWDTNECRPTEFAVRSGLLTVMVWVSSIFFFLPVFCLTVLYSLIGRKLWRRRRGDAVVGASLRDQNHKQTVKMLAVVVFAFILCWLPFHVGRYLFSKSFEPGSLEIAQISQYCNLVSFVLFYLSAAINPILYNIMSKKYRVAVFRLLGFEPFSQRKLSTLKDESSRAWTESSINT

The term Ki denotes a dissociation constant, usually derived from enzyme kinetics or from competition with a known ligand. On to `Cc1[nH]c2ccccc2c1C[C@@H](NC(=O)[C@@H](N)Cc1cnc[nH]1)C(=O)N[C@@H](C)C(=O)N[C@@H](Cc1c[nH]c2ccccc12)C(=O)N[C@H](Cc1ccccc1)C(=O)N[C@@H](CCCCN)C(N)=O` [hexarelin] (H-H[dTrp(2-Me)]AW[dF]K-NH2), for which the Ki in assay [1] came to 0.59 nM.

On to “[dA][d2Nal]AW[dF]K-NH2 [reference compound]”, for which the “Stimulated Control GH” value in assay [2] (Table 2, stimulator DAla-DβNal-Ala-Trp-DPhe-Lys-NH2 alone 0.3 μg, rat) was 2253 ± 252 ng/mL and 1412 ± 400 ng/mL; in assay [2] (Table 2, stimulator DAla-DβNal-Ala-Trp-DPhe-Lys-NH2 alone 1 μg, rat), 3214 ± 276 ng/mL and 3105 ± 429 ng/mL and 2406 ± 288 ng/mL and 2825 ± 134 ng/mL and 3104 ± 429 ng/mL; in assay [2] (Table 4, Non-Pentobarbital Rats, stimulator DAla-DβNal-Ala-Trp-DPhe-Lys-NH2 alone 10 μg), 72 ± 9 ng/mL; in assay [2] (Table 4, Pentobarbital Rats, stimulator DAla-DβNal-Ala-Trp-DPhe-Lys-NH2 alone 1 μg) it was 4950 ± 98 ng/mL. Further, the “Stimulated Control GH release” value was 2420 ± 0 ng/mL and 2811 ± 229 ng/mL and 2385 ± 8 ng/mL in assay [3] (Table 6, stimulator DAla-DβNal-Ala-Trp-DPhe-Lys-NH2 alone 10 ng/ml); 1232 ± 34 ng/mL in assay [3] (Table 9, stimulator DAla-DβNal-Ala-Trp-DPhe-Lys-NH2 alone 1 ng/ml); 905 ± 6 ng/mL and 1153 ± 36 ng/mL and 1216 ± 26 ng/mL and 1461 ± 58 ng/mL and 1016 ± 18 ng/mL and 859 ± 4 ng/mL and 1060 ± 24 ng/mL in assay [3] (Table 10, stimulator DAla-DβNal-Ala-Trp-DPhe-Lys-NH2 alone 1 ng/ml); 905 ± 6 ng/mL and 947 ± 11 ng/mL and 947 ± 33 ng/mL and 1016 ± 18 ng/mL in assay [3] (Table 11, stimulator DAla-DβNal-Ala-Trp-DPhe-Lys-NH2 alone 1 ng/ml).
